Test results taken from the NIST ThermoML archive (doi:10.1016/j.fluid.2014.07.036).
± gives the expanded uncertainty stated by the source.

Experiment: refractive index (other wavelength) (dimensionless); xn = mol fraction of the nth substance listed
Conditions: 85 kPa, Liquid, Wavelength=632.8 nm, minimum deviation angle

CCCCCCCC[n+]1ccn(C)c1.F[B-](F)(F)F [1-methyl-3-octylimidazolium tetrafluoroborate] + CCCCCCO
Conditions	refractive index
289.88 K, x1 = 0.004	1.4182 ± 0.0002
289.88 K, x1 = 0.354	1.4268 ± 0.0002
290.62 K, x1 = 0.007	1.418 ± 0.0002
290.62 K, x1 = 0.346	1.4264 ± 0.0002
291.35 K, x1 = 0.01	1.4178 ± 0.0002
291.35 K, x1 = 0.338	1.426 ± 0.0002
292.06 K, x1 = 0.009	1.4175 ± 0.0002
292.06 K, x1 = 0.325	1.4255 ± 0.0002
292.78 K, x1 = 0.011	1.4173 ± 0.0002
292.78 K, x1 = 0.317	1.4251 ± 0.0002
293.48 K, x1 = 0.014	1.4171 ± 0.0002
293.48 K, x1 = 0.31	1.4247 ± 0.0002
294.37 K, x1 = 1	1.4327 ± 0.0003
294.83 K, x1 = 0.018	1.4167 ± 0.0002
294.83 K, x1 = 0.289	1.4238 ± 0.0002
295.51 K, x1 = 0.02	1.4165 ± 0.0002
295.51 K, x1 = 0.282	1.4234 ± 0.0002
295.86 K, x1 = 1	1.4323 ± 0.0003
296.12 K, x1 = 0.021	1.4163 ± 0.0002
296.12 K, x1 = 0.269	1.4229 ± 0.0002
296.61 K, x1 = 0.024	1.4162 ± 0.0002
296.61 K, x1 = 0.263	1.4226 ± 0.0002
297.04 K, x1 = 0.026	1.4161 ± 0.0002
297.04 K, x1 = 0.252	1.4222 ± 0.0002
297.21 K, x1 = 1	1.4319 ± 0.0003
297.39 K, x1 = 0.027	1.416 ± 0.0002
297.39 K, x1 = 0.245	1.4219 ± 0.0002
297.66 K, x1 = 0.031	1.416 ± 0.0002
297.66 K, x1 = 0.24	1.4217 ± 0.0002
297.92 K, x1 = 0.034	1.416 ± 0.0002
297.92 K, x1 = 0.236	1.4215 ± 0.0002
298.17 K, x1 = 0.034	1.4159 ± 0.0002
298.17 K, x1 = 0.227	1.4212 ± 0.0002
298.38 K, x1 = 0.037	1.4159 ± 0.0002
298.38 K, x1 = 0.222	1.421 ± 0.0002
298.57 K, x1 = 0.042	1.416 ± 0.0002
298.57 K, x1 = 0.221	1.4209 ± 0.0002
298.73 K, x1 = 0.044	1.416 ± 0.0002
298.73 K, x1 = 0.219	1.4208 ± 0.0002
298.88 K, x1 = 0.046	1.416 ± 0.0002
298.88 K, x1 = 0.213	1.4206 ± 0.0002
298.93 K, x1 = 1	1.4313 ± 0.0003
299.01 K, x1 = 0.045	1.4159 ± 0.0003
299.01 K, x1 = 0.207	1.4204 ± 0.0002
299.12 K, x1 = 0.049	1.416 ± 0.0002
299.12 K, x1 = 0.208	1.4204 ± 0.0002
299.21 K, x1 = 0.05	1.416 ± 0.0002
299.21 K, x1 = 0.202	1.4202 ± 0.0002
299.37 K, x1 = 0.056	1.4161 ± 0.0002
299.37 K, x1 = 0.196	1.42 ± 0.0002
299.44 K, x1 = 0.057	1.4161 ± 0.0002
299.44 K, x1 = 0.193	1.4199 ± 0.0002
299.5 K, x1 = 0.061	1.4162 ± 0.0002
299.5 K, x1 = 0.194	1.4199 ± 0.0002
299.55 K, x1 = 0.061	1.4162 ± 0.0002
299.55 K, x1 = 0.191	1.4198 ± 0.0002
299.6 K, x1 = 0.062	1.4162 ± 0.0002
299.6 K, x1 = 0.188	1.4197 ± 0.0002
299.66 K, x1 = 0.063	1.4162 ± 0.0002
299.66 K, x1 = 0.184	1.4196 ± 0.0002
299.7 K, x1 = 0.067	1.4163 ± 0.0002
299.7 K, x1 = 0.181	1.4195 ± 0.0003
299.74 K, x1 = 0.067	1.4163 ± 0.0002
299.74 K, x1 = 0.178	1.4194 ± 0.0003
299.79 K, x1 = 0.071	1.4164 ± 0.0002
299.79 K, x1 = 0.175	1.4193 ± 0.0003
299.83 K, x1 = 0.075	1.4165 ± 0.0002
299.83 K, x1 = 0.175	1.4193 ± 0.0003
299.86 K, x1 = 0.075	1.4165 ± 0.0002
299.86 K, x1 = 0.172	1.4192 ± 0.0002
299.9 K, x1 = 0.079	1.4166 ± 0.0002
299.9 K, x1 = 0.169	1.4191 ± 0.0002
299.95 K, x1 = 0.083	1.4167 ± 0.0002
299.95 K, x1 = 0.165	1.419 ± 0.0002
299.97 K, x1 = 0.084	1.4167 ± 0.0002
299.97 K, x1 = 0.158	1.4188 ± 0.0002
299.99 K, x1 = 0.087	1.4168 ± 0.0002
299.99 K, x1 = 0.155	1.4187 ± 0.0002
300 K, x1 = 0.091	1.4169 ± 0.0002
300 K, x1 = 0.155	1.4187 ± 0.0002
300.02 K, x1 = 0.091	1.4169 ± 0.0002
300.02 K, x1 = 0.148	1.4185 ± 0.0002
300.03 K, x1 = 0.095	1.417 ± 0.0002
300.03 K, x1 = 0.148	1.4185 ± 0.0002
300.04 K, x1 = 0.098	1.4171 ± 0.0002
300.04 K, x1 = 0.144	1.4184 ± 0.0002
300.05 K, x1 = 0.102	1.4172 ± 0.0002
300.05 K, x1 = 0.141	1.4183 ± 0.0002
300.06 K, x1 = 0.102	1.4172 ± 0.0002
300.06 K, x1 = 0.105	1.4173 ± 0.0002
300.06 K, x1 = 0.109	1.4174 ± 0.0002
300.06 K, x1 = 0.134	1.4181 ± 0.0002
300.06 K, x1 = 0.137	1.4182 ± 0.0002
300.06 K, x1 = 0.141	1.4183 ± 0.0002
300.67 K, x1 = 1	1.4309 ± 0.0003
301.31 K, x1 = 0.1	1.4166 ± 0.0002
302.86 K, x1 = 0.1	1.416 ± 0.0002
302.95 K, x1 = 1	1.4303 ± 0.0003
303.16 K, x1 = 0.2	1.4188 ± 0.0002
304.31 K, x1 = 0.2	1.4183 ± 0.0002
304.45 K, x1 = 0.1	1.4155 ± 0.0002
304.54 K, x1 = 0.4	1.4225 ± 0.0002
304.54 K, x1 = 0.497	1.4239 ± 0.0002
304.6 K, x1 = 1	1.4298 ± 0.0003
305 K, x1 = 0.3	1.4202 ± 0.0002
305.51 K, x1 = 0.2	1.4179 ± 0.0002
305.52 K, x1 = 0.6	1.4251 ± 0.0002
305.52 K, x1 = 0.699	1.4263 ± 0.0003
305.69 K, x1 = 0.497	1.4236 ± 0.0002
305.73 K, x1 = 0.4	1.4221 ± 0.0002
305.93 K, x1 = 0.3	1.4199 ± 0.0002
306.12 K, x1 = 0.1	1.4148 ± 0.0002
306.24 K, x1 = 1	1.4293 ± 0.0003
306.66 K, x1 = 0.2	1.4175 ± 0.0002
306.68 K, x1 = 0.699	1.426 ± 0.0003
307.04 K, x1 = 0.6	1.4247 ± 0.0002
307.07 K, x1 = 0.3	1.4196 ± 0.0002
307.1 K, x1 = 0.891	1.428 ± 0.0003
307.23 K, x1 = 0.4	1.4216 ± 0.0002
307.73 K, x1 = 0.497	1.4229 ± 0.0002
307.83 K, x1 = 0.1	1.4142 ± 0.0002
307.92 K, x1 = 0.2	1.417 ± 0.0002
308.25 K, x1 = 0.699	1.4255 ± 0.0003
308.37 K, x1 = 0.798	1.4267 ± 0.0003
308.59 K, x1 = 0.6	1.4242 ± 0.0002
308.7 K, x1 = 0.3	1.419 ± 0.0002
308.74 K, x1 = 0.4	1.4211 ± 0.0002
308.75 K, x1 = 0.891	1.4276 ± 0.0003
309.13 K, x1 = 0.497	1.4225 ± 0.0002
309.18 K, x1 = 0.1	1.4137 ± 0.0002
309.19 K, x1 = 0.2	1.4165 ± 0.0002
309.66 K, x1 = 0.798	1.4264 ± 0.0003
309.72 K, x1 = 0.699	1.4251 ± 0.0003
310.02 K, x1 = 0.6	1.4237 ± 0.0002
310.19 K, x1 = 0.891	1.4272 ± 0.0003
310.59 K, x1 = 0.3	1.4184 ± 0.0002
310.6 K, x1 = 0.4	1.4204 ± 0.0002
310.63 K, x1 = 0.798	1.4261 ± 0.0003
310.77 K, x1 = 0.497	1.422 ± 0.0002
311.29 K, x1 = 0.699	1.4246 ± 0.0003
311.31 K, x1 = 0.891	1.4268 ± 0.0003
311.64 K, x1 = 0.6	1.4233 ± 0.0002
312.14 K, x1 = 0.3	1.4179 ± 0.0002
312.14 K, x1 = 0.4	1.4199 ± 0.0002
312.15 K, x1 = 0.798	1.4257 ± 0.0003
312.81 K, x1 = 0.699	1.4242 ± 0.0003
312.9 K, x1 = 0.497	1.4214 ± 0.0002
312.9 K, x1 = 0.6	1.4229 ± 0.0002
313.38 K, x1 = 0.891	1.4263 ± 0.0003
313.81 K, x1 = 0.798	1.4253 ± 0.0003
315.28 K, x1 = 0.798	1.4248 ± 0.0003
315.28 K, x1 = 0.891	1.4258 ± 0.0003

CCCCCO [pentan-1-ol] + CCCCCCCC[n+]1ccn(C)c1.F[B-](F)(F)F
x2 = 0
Conditions	refractive index
290.68 K	1.4096 ± 0.0002
292.95 K	1.4087 ± 0.0002
295.03 K	1.4079 ± 0.0002
297.17 K	1.4071 ± 0.0002
299.35 K	1.4062 ± 0.0002
301.73 K	1.4053 ± 0.0002

CCCCCCO [hexan-1-ol] + CCCCCCCC[n+]1ccn(C)c1.F[B-](F)(F)F
x2 = 0
Conditions	refractive index
293.99 K	1.4165 ± 0.0002
295.93 K	1.4156 ± 0.0002
297.36 K	1.4151 ± 0.0002
298.94 K	1.4145 ± 0.0002
300.69 K	1.4138 ± 0.0002
303.34 K	1.4128 ± 0.0002
304.77 K	1.4122 ± 0.0002
306.24 K	1.4117 ± 0.0002
